This is an account of results in PubChem BioAssay (NCI).

Holding throughout (experiment): DTP human tumour cell line panel, 48 h
Experiment [1] concerns MCF7 breast.
Experiment [2] deals with LOX IMVI melanoma.
Experiment [3] deals with A549 NSCLC.
Experiment [4] relates to OVCAR-4 ovarian.
Experiment [5] relates to DU-145 prostate.
Experiment [6] concerns HOP-92 NSCLC.
Experiment [7] concerns RPMI-8226 leukemia.
Experiment [8] deals with OVCAR-8 ovarian.
The test system of experiment [9] is SK-OV-3 ovarian.
The subject of experiment [10] is SR leukemia.

Each structure is given as a SMILES string. Values joined by “and” are separate entries in the source; they are usually repeats but may differ in a detail not shown here. Identical values can stand only once.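 These data come from cells grown in 96-well plates and exposed to compound for 48 hours at five concentrations. Here, GI50 denotes the concentration required for 50% inhibition of growth. At the TGI there is no net growth.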 Bounds are passed on as bounds.

Usually GI50 stands for the concentration that inhibits growth by half. By TGI is commonly meant the concentration giving total growth inhibition. On to `Cc1ccc(-c2c3c(nn2-c2ccc(S(N)(=O)=O)cc2)-c2ccccc2C3)cc1`, for which the GI50 was 30.3 µM in [1]; 18.2 µM in experiment [2]; 23.4 µM in experiment [3]; 15.4 µM in experiment [4]; 15.6 µM in [5]; 13.9 µM in experiment [6]. Besides, the GI50 is 18.4 µM in [7], 36.4 µM in [8], 47.3 µM in [9] and 15.2 µM in [10]. For the same compound, the TGI in [1] is greater than 100 µM; in experiment [2] it was 40.5 µM; in experiment [3], 70.1 µM; in experiment [4], 32.8 µM; in experiment [5], 33.1 µM; in [6] it was 30.6 µM. Further, the TGI in experiment [7] was 60.2 µM; in [8], greater than 100 µM; in experiment [9] it was greater than 100 µM; in experiment [10] it was 60.2 µM.

In the case of `CC1=C(/C=C/C(C)=C/C=C/C(C)=C/C=N/NC(=S)NC(=S)N/N=C/C=C(C)/C=C/C=C(C)/C=C/C2=C(C)CCCC2(C)C)C(C)(C)CCC1`, the GI50 is 2.38 µM and 1.83 µM in [1]; 1.8 µM and 1.11 µM in experiment [2]; 5.4 µM and 3.79 µM in [3]; 1.74 µM and 1.22 µM in experiment [4]; 5.79 µM and 2.55 µM in experiment [5]; 5.82 µM and 2.33 µM in experiment [6]. In addition, the GI50 in experiment [7] is 3.31 µM and 1.29 µM; in [8] it was 3.71 µM and 2.06 µM; in [9], 6.79 µM and 5.51 µM; in [10], 1.43 µM and 0.938 µM. Besides, the TGI was 12.5 µM and 7.5 µM in experiment [1]; 6.53 µM and 3.02 µM in experiment [2]; 12.7 µM and 10.8 µM in experiment [3]; 7.84 µM and 5.4 µM in experiment [4]; 12.5 µM and 8.77 µM in experiment [5]; 13.4 µM and 6.76 µM in experiment [6]. For the same compound, the TGI in [7] is 23.1 µM and 4.55 µM; in experiment [8], 12.3 µM and 7.32 µM; in experiment [9], 14 µM and 12.3 µM; in experiment [10], 8.12 µM and 3.79 µM.

In the case of `CCCCCCNC(=O)Oc1ccc(/C(=C(/C)Cc2ccc(OC)cc2)c2ccc(OCCCN(C)C)cc2)cc1`, the GI50 was 1.12 µM in [1]; 2.61 µM in [2]; 16.6 µM in experiment [3]; 13.1 µM in experiment [4]; 16.8 µM in experiment [5]; 9.99 µM in [6]. Further, the GI50 in experiment [7] is 15.9 µM; in [8] it was 17.3 µM; in experiment [9], 16.7 µM; in experiment [10], 2.79 µM. The TGI turned out to be 17.1 µM in experiment [1]; 15.6 µM in [2]; 31.2 µM in experiment [3]; 26.7 µM in [4]; 31.3 µM in experiment [5]; 22.4 µM in [6]. In addition, the TGI in experiment [7] stood at 35 µM; in experiment [8], 34.5 µM; in experiment [9], 30.9 µM; in [10], 11.9 µM.

For `CC(=O)OC1=CC2=CC[C@H]3[C@@H]4CCC(=O)[C@@]4(C)CC(=O)[C@]3(S)[C@@]2(C)CC1`, the concentration for total growth inhibition (TGI) in experiment [1] is greater than 100 µM; in [2], 36 µM; in experiment [3], greater than 100 µM; in experiment [4], greater than 100 µM; in experiment [5], greater than 100 µM; in [6], 62.8 µM. Moreover, the TGI in [7] was 53.5 µM; in experiment [8], greater than 100 µM; in [9], greater than 100 µM; in experiment [10], 74.1 µM.

As to `CN(COC(=O)c1ccccc1)c1nc(N(C)COC(=O)c2ccccc2)nc(N(C)COC(=O)c2ccccc2)n1`, the TGI in experiment [1] was greater than 100 µM; in experiment [2], greater than 100 µM; in experiment [3], greater than 100 µM; in experiment [4], greater than 100 µM; in experiment [5] it was greater than 100 µM; in experiment [6], 63.1 µM. For the same compound, the TGI in experiment [7], in experiment [8], in experiment [9] and in [10] was greater than 100 µM in each case.

For `COC(=O)C1OC2(CCCC3CC32)O[C@H]1C(=O)OC` (some centres undefined), the TGI in experiment [1], in experiment [2], in experiment [3], in experiment [4], in experiment [5] and in experiment [6] was greater than 100 µM each time. In addition, the TGI in experiment [7], in [8], in [9] and in experiment [10] was greater than 100 µM in each case.

`O=C1C2=C(c3ccccc31)C(c1ccccc1)N1C(=O)CSC1=N2` (centres undefined): the TGI in experiment [1], in [2], in experiment [3], in experiment [4], in [5] and in experiment [6] was greater than 100 µM each time. The concentration for total growth inhibition (TGI) in experiment [7], in experiment [8], in experiment [9] and in [10] was greater than 100 µM in each case.

Regarding `CC(C)N1CCN(Cc2ccc3c(NNC(=O)c4ccccc4)nc4cc(F)ccc4n23)CC1`, the GI50 was 0.341 µM in experiment [1]; 0.198 µM in experiment [2]; 0.465 µM in experiment [3]; 0.293 µM in experiment [4]; 0.629 µM in [5]; 0.678 µM in experiment [6]. Besides, the GI50 in experiment [7] was 0.476 µM; in [8], 0.381 µM; in experiment [9], 0.338 µM; in experiment [10], 0.185 µM. Also, the TGI in experiment [1] came out at 1.48 µM; in experiment [2], 1.54 µM; in [3], 8.47 µM; in experiment [4], 7.71 µM; in experiment [5], 13.3 µM; in experiment [6] it was 15.3 µM. The TGI in experiment [7] came to 3.18 µM; in experiment [8], 27.4 µM; in experiment [9] it was 15.3 µM; in [10], 6.83 µM.

Regarding `Cc1ccc(/C=C2\CN(C(=O)C(Cl)Cl)C/C(=C\c3ccc(C)cc3)C2=O)cc1`, the GI50 was 0.0546 µM in [1]; 0.0621 µM in experiment [2]; 0.293 µM in experiment [3]; 0.322 µM in [4]; 0.326 µM in experiment [5]; 1.47 µM in experiment [6]. The GI50 in experiment [7] was 0.0322 µM; in experiment [8] it was 0.357 µM; in [9], 1 µM; in [10], 0.11 µM. Further, the TGI in [1] was 0.836 µM; in experiment [2], 0.199 µM; in [4], greater than 100 µM; in experiment [5] it was 1.28 µM; in experiment [6] it was 3.95 µM; in experiment [7], 0.484 µM. The TGI in experiment [8], in [9] and in experiment [10] was greater than 100 µM each time.
